Assay results reported in ChEMBL document CHEMBL6103672, “Discovery of HMPL-306 (Ranosidenib), a New Potent and Selective Dual Inhibitor of Mutant IDH1 and 2 in Clinical Development for Cancer Treatment” (ACS Med Chem Lett, 2025).

Key:
[1] = Metabolic stability in male SD rat liver microsomes assessed as parent compound remaining at 1 uM measured after 30 mins in presence of NADPH by LC-MS analysis; type: ADME, Microsome; conditions: Sprague-Dawley, read-out: Stability
[2] = target: Isocitrate dehydrogenase [NADP], mitochondrial (Homo sapiens, UniProt P48735, R140Q); assay: Inhibition of IDH2 R140Q mutant (unknown origin) using alpha-ketoglutarate as substrate preincubated with compound for 16 hrs followed by substrate addition and measured after 1 hr in presence of NADPH by fluorescence based analysis
Chain of Isocitrate dehydrogenase [NADP], mitochondrial (P48735 40-452 R140Q limits assumed): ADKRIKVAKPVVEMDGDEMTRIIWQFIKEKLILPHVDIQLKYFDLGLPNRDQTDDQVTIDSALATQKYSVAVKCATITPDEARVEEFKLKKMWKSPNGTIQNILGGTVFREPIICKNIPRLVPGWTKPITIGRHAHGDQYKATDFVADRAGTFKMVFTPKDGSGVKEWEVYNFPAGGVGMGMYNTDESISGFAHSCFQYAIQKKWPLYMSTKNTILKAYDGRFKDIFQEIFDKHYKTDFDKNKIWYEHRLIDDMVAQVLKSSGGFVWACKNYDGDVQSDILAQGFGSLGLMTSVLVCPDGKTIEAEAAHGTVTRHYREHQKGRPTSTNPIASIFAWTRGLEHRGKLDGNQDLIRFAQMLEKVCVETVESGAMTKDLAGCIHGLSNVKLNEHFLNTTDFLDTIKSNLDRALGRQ

[3] = Apparent permeability across basolateral to apical side in human Caco-2 cells at 10 uM incubated for 1 hrs by LC-MS/MS analysis
[4] = Inhibition of IDH1 R132H mutant in human U-87 MG cells incubated for 72 hrs by measuring 2-HG production by fluorescence based analysis; type: functional, cell-based, U-87MG ATCC
[5] = Inhibition of IDH2 R140Q mutant in human U-87 MG cells incubated for 72 hrs by measuring 2-HG production by fluorescence based analysis; type: functional, cell-based, U-87MG ATCC
[6] = Metabolic stability in male ICR mouse liver microsomes assessed as parent compound remaining at 1 uM measured after 30 mins in presence of NADPH by LC-MS analysis; type: ADME, Microsome; conditions: read-out: Stability
[7] = Apparent permeability across apical to basolateral side in human Caco-2 cells at 10 uM incubated for 1 hrs by LC-MS/MS analysis

Compound	IC50 [2]	IC50 ([5]; Homo sapiens, U-87 MG, 72 h)	further results
C[C@@H](Nc1nc(N[C@H](C)C(F)(F)F)nc(C2=C(F)C(O)C(F)(F)CC2)n1)C(F)(F)F (mixture of isomers)	0.028 µM		remaining at 0.5 h, 1 µM [1]: 102%; Papp B→A at 1 h, 10 µM [3]: 251 nm/s; IC50 ([4]; u-87mg atcc): 0.21 µM; IC50 ([5]; u-87mg atcc): 0.094 µM; remaining at 0.5 h, 1 µM [6]: 95.2%; Papp A→B at 1 h, 10 µM [7]: 504 nm/s
CC(C)Nc1nc(N[C@H](C)C(F)(F)F)nc(C2=CCCC(O)C2)n1 (mixture of isomers)	1.78 µM		
CC(C)Nc1nc(N[C@H](C)C(F)(F)F)nc(C2=C[C@@H](O)CCC2)n1	0.016 µM	0.067 µM	remaining at 0.5 h, 1 µM [1]: 65%; Papp B→A at 1 h, 10 µM [3]: 341 nm/s; IC50 ([4]; Homo sapiens, U-87 MG, 72 h): 0.372 µM; remaining at 0.5 h, 1 µM [6]: 48.1%; Papp A→B at 1 h, 10 µM [7]: 554 nm/s
C[C@@H](Nc1nc(NC2CCC2)nc(C2=CC(O)CCC2)n1)C(F)(F)F (mixture of isomers)	0.039 µM	0.092 µM	remaining at 0.5 h, 1 µM [1]: 34%; Papp B→A at 1 h, 10 µM [3]: 275 nm/s; remaining at 0.5 h, 1 µM [6]: 15.9%; Papp A→B at 1 h, 10 µM [7]: 414 nm/s
C[C@@H](Nc1nc(NC2CCCCC2)nc(C2=CC(O)CCC2)n1)C(F)(F)F (mixture of isomers)	0.043 µM	0.296 µM	
CC(C)Nc1nc(N[C@H](C)C(F)(F)F)nc(C2=CCOCC2)n1	2.34 µM		
CC(C)Nc1nc(N[C@H](C)C(F)(F)F)nc(C2=CC(O)CC2)n1 (mixture of isomers)	0.085 µM	1.67 µM	
CC(C)Nc1nc(N[C@H](C)C(F)(F)F)nc(C2=CCC(O)CC2)n1 (mixture of isomers)	> 3 µM		
CC(C)Nc1nc(N[C@H](C)C(F)(F)F)nc(C2=CCCCC2)n1	0.021 µM	0.413 µM	remaining at 0.5 h, 1 µM [1]: 13.6%; Papp B→A at 1 h, 10 µM [3]: 33 nm/s; remaining at 0.5 h, 1 µM [6]: 12.5%; Papp A→B at 1 h, 10 µM [7]: 9 nm/s
CC(C)Nc1nc(N[C@H](C)C(F)(F)F)nc(C(C)c2ccccc2)n1 (mixture of isomers)	0.337 µM		
C[C@@H](Nc1nc(NC(C)(C)C)nc(C2=CC(O)CCC2)n1)C(F)(F)F (mixture of isomers)	0.111 µM	0.319 µM	
C[C@@H](Nc1nc(N[C@H](C)C(F)(F)F)nc(C2=C(F)C(O)C3(CC2)CC3)n1)C(F)(F)F (mixture of isomers)	0.222 µM	0.707 µM	IC50 ([4]; Homo sapiens, U-87 MG, 72 h): 3.23 µM
CC(C)C(=O)Nc1nc(N[C@H](C)C(F)(F)F)nc(C2=CC(O)CCC2)n1 (mixture of isomers)	0.262 µM	1.54 µM	
COCCNc1nc(N[C@H](C)C(F)(F)F)nc(C2=CC(O)CCC2)n1 (mixture of isomers)	> 3 µM		
CC(C)CNc1nc(N[C@H](C)C(F)(F)F)nc(C2=CC(O)CCC2)n1 (mixture of isomers)	0.021 µM	0.1 µM	IC50 ([4]; Homo sapiens, U-87 MG, 72 h): 2.47 µM
C[C@@H](Nc1nc(N[C@H](C)C(F)(F)F)nc(C2=C(F)C(O)C(F)(F)CC2)n1)C(F)(F)F (stereo in doubt; 42)	0.145 µM		IC50 ([4]; u-87mg atcc): 1.89 µM; IC50 ([5]; u-87mg atcc): 0.845 µM
C[C@H](Nc1nc(N[C@H](C)C(F)(F)F)nc(C2=C(F)C(O)C(F)(F)CC2)n1)C(F)(F)F (stereo partly specified)	0.166 µM	0.156 µM	IC50 ([4]; Homo sapiens, U-87 MG, 72 h): 1.03 µM
C[C@H](Nc1nc(N[C@@H](C)C(F)(F)F)nc(C2=C(F)C(O)C(F)(F)CC2)n1)C(F)(F)F (mixture of isomers)	0.309 µM	0.174 µM	IC50 ([4]; Homo sapiens, U-87 MG, 72 h): 1.32 µM
CC(C)Nc1nc(N[C@H](C)C(F)(F)F)nc(C2=C[C@H](O)CCC2)n1	0.794 µM	0.999 µM	
CCCNc1nc(N[C@H](C)C(F)(F)F)nc(C2=CC(O)CCC2)n1 (mixture of isomers)	0.035 µM	0.174 µM	

Compound	IC50 [2]	IC50 ([5]; Homo sapiens, U-87 MG, 72 h)	further results
CC(C)Nc1nc(N[C@H](C)C(F)(F)F)nc(C2=CCN(C)CC2)n1	> 3 µM		
CC(C)Nc1nc(N[C@H](C)C(F)(F)F)nc(C2=CC(F)(F)CCC2)n1	0.023 µM	0.504 µM	Papp B→A at 1 h, 10 µM [3]: 40 nm/s; Papp A→B at 1 h, 10 µM [7]: 22 nm/s
CC(C)Nc1nc(N[C@H](C)C(F)(F)F)nc(C2=CCC(F)CC2)n1 (mixture of isomers)	0.162 µM		
CC(C)Nc1nc(N[C@H](C)C(F)(F)F)nc(C2(c3ccccc3)CC2)n1	0.253 µM		
C[C@@H](Nc1nc(NC2CCCC2)nc(C2=CC(O)CCC2)n1)C(F)(F)F (mixture of isomers)	0.033 µM	0.067 µM	Papp B→A at 1 h, 10 µM [3]: 136 nm/s; IC50 ([4]; Homo sapiens, U-87 MG, 72 h): 0.733 µM; Papp A→B at 1 h, 10 µM [7]: 309 nm/s
C[C@@H](Nc1nc(N[C@H](C)C(F)(F)F)nc(C2=C(F)[C@H](O)CCC2)n1)C(F)(F)F		1.02 µM	Papp B→A at 1 h, 10 µM [3]: 260 nm/s; IC50 ([4]; Homo sapiens, U-87 MG, 72 h): 3.26 µM; Papp A→B at 1 h, 10 µM [7]: 600 nm/s
C[C@@H](Nc1nc(NC2CC2)nc(C2=CC(O)CCC2)n1)C(F)(F)F (mixture of isomers)	0.257 µM	0.171 µM	
CCNc1nc(N[C@H](C)C(F)(F)F)nc(C2=CC(O)CCC2)n1 (mixture of isomers)	0.068 µM	0.336 µM	
C[C@@H](Nc1nc(N[C@H](C)C(F)(F)F)nc(C2=CC(O)CCC2)n1)C(F)(F)F (mixture of isomers)	0.035 µM	0.086 µM	remaining at 0.5 h, 1 µM [1]: 79.8%; Papp B→A at 1 h, 10 µM [3]: 286 nm/s; IC50 ([4]; Homo sapiens, U-87 MG, 72 h): 0.434 µM; remaining at 0.5 h, 1 µM [6]: 58.2%; Papp A→B at 1 h, 10 µM [7]: 449 nm/s
CNC1C=C(c2nc(N[C@H](C)C(F)(F)F)nc(N[C@H](C)C(F)(F)F)n2)CCC1 (stereo partly specified)	> 3 µM		
C[C@@H](Nc1nc(N[C@H](C)C(F)(F)F)nc(C2=C(F)C(O)CCC2)n1)C(F)(F)F (mixture of isomers)	0.054 µM	0.137 µM	remaining at 0.5 h, 1 µM [1]: 99%; Papp B→A at 1 h, 10 µM [3]: 155 nm/s; IC50 ([4]; Homo sapiens, U-87 MG, 72 h): 0.365 µM; remaining at 0.5 h, 1 µM [6]: 83.8%; Papp A→B at 1 h, 10 µM [7]: 686 nm/s
CC(C)Nc1nc(N[C@H](C)C(F)(F)F)nc(C2=CCCC2)n1	0.083 µM	1.42 µM	
CC(C)Nc1nc(N[C@H](C)C(F)(F)F)nc(C2=CC(O)CCC2)n1 (mixture of isomers)	0.041 µM	0.137 µM	remaining at 0.5 h, 1 µM [1]: 74.1%; Papp B→A at 1 h, 10 µM [3]: 346 nm/s; IC50 ([4]; Homo sapiens, U-87 MG, 72 h): 0.658 µM; remaining at 0.5 h, 1 µM [6]: 44.1%; Papp A→B at 1 h, 10 µM [7]: 533 nm/s
CC(C)Nc1nc(N[C@H](C)C(F)(F)F)nc(N2CCCCC2)n1	> 3 µM		
CC(C)Nc1nc(N[C@H](C)C(F)(F)F)nc(C2=CCCC(F)C2)n1 (mixture of isomers)	0.12 µM		
C=C(C)c1nc(NC(C)C)nc(N[C@H](C)C(F)(F)F)n1	0.71 µM	> 10 µM	
COC1C=C(c2nc(N[C@H](C)C(F)(F)F)nc(N[C@H](C)C(F)(F)F)n2)CCC1 (stereo partly specified)	1.03 µM	2.39 µM	
C[C@@H](Nc1nc(NCC(C)(C)O)nc(C2=CC(O)CCC2)n1)C(F)(F)F (mixture of isomers)	1.2 µM	2.8 µM	
CC(C)Nc1nc(N[C@H](C)C(F)(F)F)nc(C2=CC(F)CCC2)n1 (mixture of isomers)	0.043 µM	0.181 µM	remaining at 0.5 h, 1 µM [1]: 25.1%; Papp B→A at 1 h, 10 µM [3]: 52 nm/s; remaining at 0.5 h, 1 µM [6]: 16.8%; Papp A→B at 1 h, 10 µM [7]: 51 nm/s
